Experiments:
Type in all cases: cell-based
[1] = molecular target: T1, human TGR5 receptor (Homo sapiens, UniProt Q8TDU6); assay: Human TGR5 cAMP production assay; conditions: human TGR5, luminescent cAMP assay; coded A-D; read-out: Human TGR5 Lum. cAMP Activity (EC50)
T1 construct: host or cells: CHO-K1 (hTGR5-CHO cells)
T1 sequence (Q8TDU6 1-330): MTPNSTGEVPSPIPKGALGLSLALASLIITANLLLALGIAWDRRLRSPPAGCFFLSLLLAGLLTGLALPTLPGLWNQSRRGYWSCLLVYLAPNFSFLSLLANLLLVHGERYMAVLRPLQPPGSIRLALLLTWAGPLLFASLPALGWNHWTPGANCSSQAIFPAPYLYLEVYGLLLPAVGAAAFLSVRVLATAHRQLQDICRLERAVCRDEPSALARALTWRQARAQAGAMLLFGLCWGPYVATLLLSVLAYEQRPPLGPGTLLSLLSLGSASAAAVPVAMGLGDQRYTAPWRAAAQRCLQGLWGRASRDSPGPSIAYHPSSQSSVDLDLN
Procedure, shortened: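 CHO-K1 cells stably expressing human TGR5, with IBMX and cAMP antibody, were exposed to half-log serially diluted compound for 1 h at room temperature. cAMP measured by enzyme-fragment complementation luminescence (XS+ kit) after overnight incubation; EC50 values reported.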

[2] = molecular target: T2, mouse TGR5 receptor (Mus musculus, UniProt Q80SS6); assay: Mouse TGR5 cAMP production assay (luminescent, DiscoveRx cAMP XS+); conditions: HEK293-EBNA cells overexpressing mouse TGR5, luminescent cAMP XS+; coded A-D; read-out: Mouse TGR5 Lum. cAMP Activity (EC50)
T2 construct: expressed in transfected cells; host or cells: HEK293-EBNA (293 c18, ATCC CRL10852), Hygromycin B selection
T2 sequence (Q80SS6 1-329): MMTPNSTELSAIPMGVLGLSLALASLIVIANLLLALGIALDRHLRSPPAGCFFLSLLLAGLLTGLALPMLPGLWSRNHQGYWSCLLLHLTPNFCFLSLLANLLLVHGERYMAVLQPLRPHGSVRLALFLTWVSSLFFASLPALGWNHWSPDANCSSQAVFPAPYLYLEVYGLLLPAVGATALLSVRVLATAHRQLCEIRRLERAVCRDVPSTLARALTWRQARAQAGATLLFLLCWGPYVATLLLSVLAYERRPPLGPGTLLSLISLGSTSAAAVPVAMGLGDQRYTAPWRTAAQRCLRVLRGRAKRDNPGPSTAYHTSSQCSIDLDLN
Description: Mouse TGR5 cAMP Production Assay
We evaluated compounds of the present invention for their ability to induce cAMP production in HEK-EBNA cells overexpressing the mouse TGR5 receptor. Human embryonic kidney cells (HEK293-EBNA) stably expressing mouse TGR5 receptor were established using the following procedure. Specifically, a commercially-obtained gene encoding mouse TGR5 (accession number BC116914) from Thermo Scientific (Waltham, Mass.) was cloned into an episomal expression vector. The resulting expression plasmid was then transfected into 293 c18 (ATCC® CRL10852™) cells, which express the Epstein-Barr virus nuclear antigen EBNA1 and can support the replication of episomal vectors. Selection for the plasmid was maintained with Hygromycin B. Cells were cultured and maintained in DMEM (Sigma; cat #6429) supplemented with 10% Fetal Bovine Serum, 1% penicillin/streptomycin, 2 mM L-alanine L-glutamine (GlutaMax), and 250 μg/mL Hygromycin.
Two cAMP production assays were developed.
1. Luminescent cAMP Production Assay
In this first cAMP production assay, the cAMP production was measured using DiscoveRx's cAMP XS+ kit following the manufacturer's recommended protocol.
Briefly, HEK293-EBNA cells stably overexpressing mouse TGR5 were harvested using non-enzymatic cell dissociation buffer (Sigma-Aldrich, St. Louis, Mo.), spun down, then resuspended in serum-free DMEM with 500 μM IBMX at a density of 1.25×10^6 cells/mL. 500 μL of cAMP antibody solution was added to […] of cell suspension and incubated at room temperature for 20 min.
Test compounds were serially diluted (half-log dilutions) in DMSO and then further diluted 1:50 in PBS, 10 mM HEPES buffer. 2 μL of serially diluted compound was added to a 384-well low volume plate (Greiner cat #784075) and centrifuged briefly. 2 μL of the cell/cAMP antibody mixture was then added to each compound-containing well and allowed to incubate at room temperature for one (1) hour. Following incubation, the XS+ kits' ED/Lysis/CL Substrate Working Solution was prepared following the manufacturer's recommended protocol and 4 μL was added to each well of the plate. The plate was then incubated for one (1) hour at room temperature. Following incubation, 4 μL of (Enzyme Acceptor) EA reagent was added to the plate and allowed to incubate overnight at room temperature. Luminescent signal was then detected using the Viewlux instrument (Perkin-Elmer, Waltham, Mass.).
In Table 33, EC50 values for both human and mouse cells were determined according to the TGR5 cAMP assays described above.

[3] = molecular target: T2, mouse TGR5 receptor; assay: Mouse TGR5 cAMP production assay (HTRF, Cisbio cAMP HiRange); conditions: HEK293-EBNA cells overexpressing mouse TGR5, HTRF cAMP HiRange; coded A-D
Procedure, shortened: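 cAMP read by HTRF competition after 1 h room-temperature compound exposure of mouse TGR5-overexpressing HEK293-EBNA cells. Cells were suspended in serum-free DMEM containing 500 μM IBMX; compounds ran as 12-point half-log dilutions in duplicate; EC50 derived.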

Compound	EC50 [1] [nM]	EC50 [2] [nM]	EC50 [3] [nM]
O=S(=O)(NCc1cccc(-c2ccncc2F)c1)c1cccc(C(F)(F)F)c1 [Compound 1AP]	100 to 999	1000 to 30000	–
CC(C)(NS(=O)(=O)c1cccc(C(F)(F)F)c1)c1cccc(-c2ccnc3ccccc23)c1 [Compound 1AJ]	1000 to 30000	1000 to 30000	–
C[C@@H](NS(=O)(=O)c1cccc(C(F)(F)F)c1)c1cccc(-c2ccncc2)c1 [Compound 1BB]	100 to 999	1000 to 30000	–
O=S(=O)(NCc1cccc(-c2ccncc2)c1)c1cccc(C(F)(F)F)c1 [Compound 1AR]	100 to 999	1000 to 30000	–
Cc1noc(C)c1-c1cccc(CNS(=O)(=O)c2ccc(C(F)(F)F)cc2)c1 [Compound 1AA]	1000 to 30000	> 30000	–
C[C@H](NS(=O)(=O)c1cccc(C(F)(F)F)c1)c1cccc(-c2ccncc2)c1 [Compound 1AW]	100 to 999	1000 to 30000	–
CC(C)(NS(=O)(=O)c1cccc(C(F)(F)F)c1)c1cccc(-c2ccnc(Cl)c2)c1 [Compound 1AG]	100 to 999	1000 to 30000	–
COc1cnccc1-c1ccnc(CNS(=O)(=O)c2cccc(C(F)(F)F)c2)c1 [Compound 1BR]	1000 to 30000	1000 to 30000	–
Cc1cncc(F)c1-c1cccc(C(C)(C)NS(=O)(=O)c2cccc(C(F)(F)F)c2)c1 [Compound 1AO]	1000 to 30000	1000 to 30000	–
COc1cnccc1-c1cccc(C2(NS(=O)(=O)c3cccc(C(F)(F)F)c3)CC2)c1 [Compound 1BN]	100 to 999	100 to 999	–
CC(C)(NS(=O)(=O)c1cccc(C(F)(F)F)c1)c1cccc(-c2ccnc(C(F)(F)F)c2)c1 [Compound 1AH]	1000 to 30000	> 30000	–
COc1cnccc1-c1cccc(C(C)(C)NS(=O)(=O)c2cccc(C(F)(F)F)c2)c1 [Compound 1AI]	< 100	100 to 999	–
COc1cnccc1-c1cccc(CNS(=O)(=O)c2cccc(C(F)(F)F)c2)n1 [Compound 1BQ]	1000 to 30000	1000 to 30000	–
COCCOc1cnccc1-c1cccc(C(C)(C)NS(=O)(=O)c2cccc(C(F)(F)F)c2)c1 [Compound 8, N-(2-(3-(3-(2-methoxyethoxy)pyridin-4-yl)phenyl)propan-2-yl)-3-(trifluoromethyl)benzenesulfonamide]	100 to 999	1000 to 30000	–
CC(C)(NS(=O)(=O)c1cccc(C(F)(F)F)c1)c1cccc(-c2ccncc2)c1 [Compound 1AD]	< 100	1000 to 30000	–
COc1cnccc1-c1cccc([C@@H](C)NS(=O)(=O)c2cccc(C(F)(F)F)c2)c1 [Compound 1BE]	100 to 999	100 to 999	–
Cc1cnccc1-c1cccc([C@H](C)N(CCCC(=O)NCCS(=O)(=O)NCC(=O)O)S(=O)(=O)c2ccc(F)cc2C(F)(F)F)c1 [Compound 36, (S)-2-(4-(4-fluoro-N-(1-(3-(3-methylpyridin-4-yl)phenyl)ethyl)-2-(trifluoromethyl)phenylsulfonamido)butanamido)ethanesulfonamido acetic acid]	< 100	–	< 100

The remaining lines, values ahead:

EC50 [1] [nM]	EC50 [2] [nM]	EC50 [3] [nM]	Compound
100 to 999	100 to 999	–	C[C@H](NS(=O)(=O)c1ccccc1[N+](=O)[O-])c1cccc(-c2ccncc2Cl)c1 [Compound 2BS]
1000 to 30000	1000 to 30000	–	Cc1noc(C)c1-c1cccc(CNS(=O)(=O)c2cccc(Cl)c2)c1 [Compound 2AA]
100 to 999	100 to 999	–	CCC(NS(=O)(=O)c1cccc(C(F)(F)F)c1)c1cccc(-c2ccncc2C)c1 (racemic) [Compound 5AU, (+/−)N-(1-(3-(3-methylpyridin-4-yl)phenyl)propyl)-3-(trifluoromethyl)benzenesulfonamide]
1000 to 30000	> 30000	–	Cc1noc(C)c1-c1cccc(CNS(=O)(=O)c2cc(C(F)(F)F)cc(C(F)(F)F)c2)c1 [Compound 2AH]
100 to 999	100 to 999	–	COc1cnccc1-c1cccc(C(C)(C)NS(=O)(=O)c2cccc(C)c2)c1 [Compound 2AZ]
1000 to 30000	1000 to 30000	–	O=[N+]([O-])c1ccccc1S(=O)(=O)NCc1cccc(-c2ccncc2)c1 [Compound 2AO]
1000 to 30000	1000 to 30000	–	COc1cnccc1-c1cccc(C(C)(C)NS(=O)(=O)c2cc(C(F)(F)F)ccc2OC)c1 [Compound 2AW]
100 to 999	100 to 999	–	CC(C)Oc1cnccc1-c1cccc(C(C)(C)NS(=O)(=O)c2cccc(C(F)(F)F)c2)c1 [Compound 8AA, N-(2-(3-(3-isopropoxypyridin-4-yl)phenyl)propan-2-yl)-3-(trifluoromethyl)benzenesulfonamide]
100 to 999	1000 to 30000	–	COc1cnccc1-c1cccc([C@H](C)NS(=O)(=O)c2cccc(Br)c2)c1 [Compound 2BO]
1000 to 30000	> 30000	–	O=S(=O)(NCc1cccc(-c2ccncc2)c1)c1ccccc1F [Compound 2AS]
100 to 999	100 to 999	–	COc1cnccc1-c1cccc(C(C)(C)NS(=O)(=O)c2cc(Br)cc(C(F)(F)F)c2)c1 [Compound 2BB]
1000 to 30000	1000 to 30000	–	O=S(=O)(NCc1cccc(-c2ccncc2)c1)c1cccc(Cl)c1 [Compound 2AJ]
< 100	–	< 100	CCc1cnccc1-c1cccc([C@H](C)N(CCCCNC(=O)[C@@H](N)CS(=O)(=O)O)S(=O)(=O)c2cccc(Cl)c2C)c1 [Compound 31AD, (R)-2-amino-3-((4-(3-chloro-N-((S)-1-(3-(3-ethylpyridin-4-yl)phenyl)ethyl)-2-methylphenylsulfonamido)butyl)amino)-3-oxopropane-1-sulfonic acid]
100 to 999	–	100 to 999	Cc1cnccc1-c1cccc(C2(N(CCCC(=O)O)S(=O)(=O)c3cccc(Cl)c3C)COC2)c1 [Compound 16AL, 4-(3-chloro-2-methyl-N-(3-(3-(3-methylpyridin-4-yl)phenyl)-oxetan-3-yl)phenyl-sulfonamido)butanoic acid]
< 100	–	< 100	CCc1cnccc1-c1cccc([C@H](C)N(CCCC(=O)O)S(=O)(=O)c2cccc(Cl)c2C)c1 [Compound 16AB, (S)-4-(3-chloro-N-(1-(3-(3-ethylpyridin-4-yl)phenyl)ethyl)-2-methylphenyl-sulfonamido)butanoic acid]
< 100	–	< 100	Cc1cnccc1-c1cccc(C2CN(C(=O)CS(=O)(=O)O)CCN2S(=O)(=O)c2cccc(Cl)c2Cl)c1 (stereo not drawn) [Compound 49AC, 2-(4-((2,3-dichlorophenyl)sulfonyl)-3-(3-(3-methylpyridin-4-yl)phenyl)piperazin-1-yl)-2-oxoethanesulfonic acid]
